Assay results: ChEMBL document CHEMBL1134164, “Antifungal activity of octyl gallate: structural criteria and mode of action” (2001)
Converted amounts (≈) assume the structure as drawn. The source made the active and inactive calls.

Experiments:
Aspergillus niger [1] = experiment: Antifungicidal activity against Aspergillus niger was determined; assay type: functional
Aspergillus niger [2] = experiment: Inhibitory activity against Aspergillus niger was determined; assay type: functional
Bacillus subtilis = experiment: Antimicrobial activity against Bacillus subtilis was determined; assay type: functional
[3] = test system: Corynebacterium ammoniagenes; experiment: Antimicrobial activity against Brevibacterium ammoniagenes was determined; assay type: functional
Candida albicans [4] = experiment: Inhibitory activity against Candida albicans was determined; assay type: functional
Candida albicans [5] = experiment: Antifungicidal activity against Candida albicans was determined; assay type: functional
Klebsiella aerogenes [6] = experiment: Antimicrobial activity against Enterobacter aerogenes was determined; assay type: functional
Escherichia coli [7] = experiment: Antimicrobial activity against Escherichia coli was determined; assay type: functional
Micrococcus luteus [8] = experiment: Antimicrobial activity against Micrococcus luteus was determined; assay type: functional
Proteus vulgaris [9] = experiment: Antimicrobial activity against Proteus vulgaris was determined; assay type: functional
Pseudomonas aeruginosa [10] = experiment: Inhibitory activity against Pseudomonas aeruginosa was determined; assay type: functional
Cutibacterium acnes [11] = experiment: Antimicrobial activity against Propionibacterium acnes was determined; assay type: functional
Proteus vulgaris [12] = experiment: Inhibitory activity against Proteus vulgaris was determined; assay type: functional
Pseudomonas aeruginosa [13] = experiment: Antimicrobial activity against Pseudomonas aeruginosa was determined; assay type: functional
Salmonella enterica = experiment: Antimicrobial activity against Salmonella choleraesuis was determined; assay type: functional
Staphylococcus aureus [14] = experiment: Inhibitory activity against Staphylococcus aureus (MRSA) was determined; assay type: functional
Staphylococcus aureus [15] = experiment: Antimicrobial activity against Staphylococcus aureus was determined; assay type: functional
Saccharomyces cerevisiae [16] = experiment: Antifungicidal activity against Saccharomyces cerevisiae was determined; assay type: functional
Saccharomyces cerevisiae [17] = experiment: Inhibitory activity against Saccharomyces cerevisiae was determined; assay type: functional
Staphylococcus aureus [18] = experiment: Antimicrobial activity against Staphylococcus aureus (MRSA) was determined; assay type: functional
Streptococcus mutans [19] = experiment: Antimicrobial activity against Streptococcus mutans was determined; assay type: functional
Zygosaccharomyces bailii [20] = experiment: Antifungicidal activity against Zygosaccharomyces bailii was determined; assay type: functional
Cutibacterium acnes [21] = experiment: Inhibitory activity against Propionibacterium acnes was determined; assay type: functional
Zygosaccharomyces bailii [22] = experiment: Inhibitory activity against Zygosaccharomyces bailii was determined; assay type: functional
Escherichia coli [23] = experiment: Inhibitory activity against Escherichia coli was determined
Micrococcus luteus [24] = experiment: Inhibitory activity against Micrococcus luteus was determined
Streptococcus mutans [25] = experiment: Inhibitory activity against Streptococcus mutans was determined
Staphylococcus aureus [26] = experiment: Inhibitory activity against Staphylococcus aureus was determined
Klebsiella aerogenes [27] = experiment: Inhibitory activity against Enterobacter aerogenes was determined
[28] = test system: Corynebacterium ammoniagenes; experiment: Inhibitory activity against Brevibacterium ammoniagenes was determined
Saccharomyces cerevisiae [29] = experiment: Minimum fungicidal concentration against Saccharomyces cerevisiae; assay type: functional
[30] = test system: Corynebacterium ammoniagenes; experiment: Inhibitory activity against Brevibacterium ammoniagenes was determined; assay type: functional
Klebsiella aerogenes [31] = experiment: Inhibitory activity against Enterobacter aerogenes was determined; assay type: functional
Escherichia coli [32] = experiment: Inhibitory activity against Escherichia coli was determined; assay type: functional
Micrococcus luteus [33] = experiment: Inhibitory activity against Micrococcus luteus was determined; assay type: functional
Staphylococcus aureus [34] = experiment: Inhibitory activity against Staphylococcus aureus was determined; assay type: functional
Streptococcus mutans [35] = experiment: Inhibitory activity against Streptococcus mutans was determined; assay type: functional
Saccharomyces cerevisiae [36] = experiment: Minimum fungicidal concentration against Saccharomyces cerevisiae (Inactive); assay type: functional, organism-based

| SMILES | MFC (Aspergillus niger [1]) | MFC (Aspergillus niger [2]) | MBC (Bacillus subtilis) | MBC [3] | MFC (Candida albicans [4]) | MFC (Candida albicans [5]) | MBC (Klebsiella aerogenes [6]) | MBC (Escherichia coli [7]) | MBC (Micrococcus luteus [8]) | MBC (Proteus vulgaris [9]) | MIC (Pseudomonas aeruginosa [10]) | MBC (Cutibacterium acnes [11]) | MIC (Proteus vulgaris [12]) | MBC (Pseudomonas aeruginosa [13]) | MBC (Salmonella enterica) | MIC (Staphylococcus aureus [14]) | MBC (Staphylococcus aureus [15]) | MFC (Saccharomyces cerevisiae [16]) | MFC (Saccharomyces cerevisiae [17]) | MBC (Staphylococcus aureus [18]) | also measured |
| --- | --- | --- | --- | --- | --- | --- | --- | --- | --- | --- | --- | --- | --- | --- | --- | --- | --- | --- | --- | --- | --- |
| CCCCCCCCCCCCOC(=O)c1cc(O)c(O)c(O)c1 [DODECYL GALLATE] | > 400 µg/mL | > 400 µg/mL | 25 µg/mL (≈ 73.9 µM) | 25 µg/mL (≈ 73.9 µM) | > 400 µg/mL | > 400 µg/mL | > 800 µg/mL | > 800 µg/mL | 25 µg/mL (≈ 73.9 µM) | > 800 µg/mL | > 800 µg/mL | 6.25 µg/mL (≈ 18.5 µM) | > 800 µg/mL | > 800 µg/mL | 50 µg/mL (≈ 148 µM) | 12.5 µg/mL (≈ 36.9 µM) | 25 µg/mL (≈ 73.9 µM) | > 1600 µg/mL | > 1600 µg/mL | 25 µg/mL (≈ 73.9 µM) | MBC (Streptococcus mutans [19]): 100 µg/mL (≈ 295 µM); MFC (Zygosaccharomyces bailii [20]): > 1600 µg/mL; MIC (Cutibacterium acnes [21]): 6.25 µg/mL (≈ 18.5 µM); MIC (Zygosaccharomyces bailii [22]): > 1600 µg/mL; MIC (Escherichia coli [23]): > 800 µg/mL; MIC (Micrococcus luteus [24]): 12.5 µg/mL (≈ 36.9 µM); MIC (Streptococcus mutans [25]): 100 µg/mL (≈ 295 µM); MIC (Staphylococcus aureus [26]): 12.5 µg/mL (≈ 36.9 µM); MIC (Klebsiella aerogenes [27]): > 800 µg/mL; MIC [28]: 12.5 µg/mL (≈ 36.9 µM) |
| CC(C)=CCC/C(C)=C/COC(=O)c1cc(O)c(O)c(O)c1 [Geranyl gallate] | – | – | – | – | – | – | – | – | – | – | – | – | – | – | – | – | – | – | – | – | MFC (Saccharomyces cerevisiae [29]): 50 µg/mL (≈ 163 µM) |
| CCCCCCCCOC(=O)c1cc(O)c(O)c(O)c1 [OCTYL_GALLATE] | 100 µg/mL (≈ 354 µM) | 50 µg/mL (≈ 177 µM) | 25 µg/mL (≈ 88.5 µM) | 50 µg/mL (≈ 177 µM) | 25 µg/mL (≈ 88.5 µM) | 25 µg/mL (≈ 88.5 µM) | > 800 µg/mL | > 800 µg/mL | 25 µg/mL (≈ 88.5 µM) | 50 µg/mL (≈ 177 µM) | > 800 µg/mL | 25 µg/mL (≈ 88.5 µM) | 25 µg/mL (≈ 88.5 µM) | > 800 µg/mL | 12.5 µg/mL (≈ 44.3 µM) | 25 µg/mL (≈ 88.5 µM) | 50 µg/mL (≈ 177 µM) | 25 µg/mL (≈ 88.5 µM) | 25 µg/mL (≈ 88.5 µM) | 50 µg/mL (≈ 177 µM) | MIC [30]: 25 µg/mL (≈ 88.5 µM); MIC (Klebsiella aerogenes [31]): > 800 µg/mL; MIC (Escherichia coli [32]): > 800 µg/mL; MIC (Micrococcus luteus [33]): 12.5 µg/mL (≈ 44.3 µM); MIC (Staphylococcus aureus [34]): 25 µg/mL (≈ 88.5 µM); MIC (Streptococcus mutans [35]): 50 µg/mL (≈ 177 µM); MBC (Streptococcus mutans [19]): 50 µg/mL (≈ 177 µM); MFC (Zygosaccharomyces bailii [20]): 50 µg/mL (≈ 177 µM); MIC (Cutibacterium acnes [21]): 25 µg/mL (≈ 88.5 µM); MIC (Zygosaccharomyces bailii [22]): 50 µg/mL (≈ 177 µM) |
| CCCOC(=O)c1cc(O)c(O)c(O)c1 [PROPYL GALLATE] | > 3200 µg/mL | > 3200 µg/mL | 1600 µg/mL (≈ 7540 µM) | 3200 µg/mL (≈ 15100 µM) | 3200 µg/mL (≈ 15100 µM) | > 3200 µg/mL | > 3200 µg/mL | 1600 µg/mL (≈ 7540 µM) | 3200 µg/mL (≈ 15100 µM) | 400 µg/mL (≈ 1890 µM) | 3200 µg/mL (≈ 15100 µM) | 800 µg/mL (≈ 3770 µM) | 400 µg/mL (≈ 1890 µM) | > 3200 µg/mL | > 3200 µg/mL | 1600 µg/mL (≈ 7540 µM) | 3200 µg/mL (≈ 15100 µM) | > 3200 µg/mL | 3200 µg/mL (≈ 15100 µM) | 3200 µg/mL (≈ 15100 µM) | MIC [30]: 1600 µg/mL (≈ 7540 µM); MIC (Klebsiella aerogenes [31]): 3200 µg/mL (≈ 15100 µM); MIC (Escherichia coli [32]): 1600 µg/mL (≈ 7540 µM); MIC (Micrococcus luteus [33]): 1600 µg/mL (≈ 7540 µM); MIC (Staphylococcus aureus [34]): 1600 µg/mL (≈ 7540 µM); MIC (Streptococcus mutans [35]): 400 µg/mL (≈ 1890 µM); MBC (Streptococcus mutans [19]): 800 µg/mL (≈ 3770 µM); MFC (Zygosaccharomyces bailii [20]): > 3200 µg/mL; MIC (Cutibacterium acnes [21]): 800 µg/mL (≈ 3770 µM); MIC (Zygosaccharomyces bailii [22]): > 3200 µg/mL |
| CCCCCCCOC(=O)/C=C/c1ccc(O)c(O)c1 | – | – | – | – | – | – | – | – | – | – | – | – | – | – | – | – | – | – | – | – | MFC (Saccharomyces cerevisiae [29]): 50 µg/mL (≈ 180 µM) |
| CCCCCCCCOC(=O)c1cccc(O)c1O | – | – | – | – | – | – | – | – | – | – | – | – | – | – | – | – | – | – | – | – | MIC (Saccharomyces cerevisiae [36]): inactive |
| CCCCCCCCCC(=O)Oc1ccc(O)c(O)c1 | – | – | – | – | – | – | – | – | – | – | – | – | – | – | – | – | – | – | – | – | MFC (Saccharomyces cerevisiae [29]): 50 µg/mL (≈ 178 µM) |
